The values that follow come from patent US9242978B2, “Phenylacetamide compound and pharmaceutical containing same” (KOWA COMPANY, LTD., priority 2012, dated 2016).

Where two headings read alike, the source gives them in different places.

The target of series [1] is T1, GST-GK derived from human liver GK (Homo sapiens, UniProt P35557).
T1 construct: made in house; host or cells: Escherichia coli DH5α
T1 sequence (P35557 1-466 isoform P35557-2): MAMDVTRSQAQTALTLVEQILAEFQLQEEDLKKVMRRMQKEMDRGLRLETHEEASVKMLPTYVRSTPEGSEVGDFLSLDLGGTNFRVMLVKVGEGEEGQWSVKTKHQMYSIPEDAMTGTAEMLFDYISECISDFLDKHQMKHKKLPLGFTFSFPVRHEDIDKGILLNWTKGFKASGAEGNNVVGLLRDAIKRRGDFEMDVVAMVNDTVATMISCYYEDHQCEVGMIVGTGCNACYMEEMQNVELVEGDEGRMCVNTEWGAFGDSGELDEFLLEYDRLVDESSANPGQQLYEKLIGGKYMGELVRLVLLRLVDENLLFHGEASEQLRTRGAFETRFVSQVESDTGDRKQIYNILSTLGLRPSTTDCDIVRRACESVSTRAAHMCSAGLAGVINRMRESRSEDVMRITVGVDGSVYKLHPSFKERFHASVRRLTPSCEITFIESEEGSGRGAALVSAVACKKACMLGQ
Description: In vitro GK activating action measurement test. In kind it is biochemical. The note with it: 10 min; test compound 1 μmol/L, glucose 2.5 mmol/L, 25° C.; read-out: GK activation rate (%). An excerpt: cDNA (GenBank Accession No. NM_033507, human glucokinase, variant 2) encoding human liver-type GK polypeptide was cloned by performing a polymerase chain reaction (hereinafter referred to as “PCR”) using a human liver cDNA library (Human liver QUICK-Clone cDNA, TAKARA BIO INC.), and the thus cloned cDNA was then introduced into an expression vector (pGEX-3X, GE Healthcare Japan) for glutathione S transferase (hereinafter referred to as GST) fusion proteins. The resulting vector was introduced into Escherichia coli (Competent high DH5α, Toyobo Co., Ltd.), and the transformed Escherichia coli was then cultured at 37° C. Thereafter, Isopropyl β-D-1-thiogalactopyranoside (final concentration: 1 mmol/L, Sigma Aldrich Japan) was added to the culture, and the obtained mixture was then cultured at 30° C. for 3 hours. Thereafter, a cell mass was recovered. The recovered cell mass was subjected to freezing-and-thawing, and the resulting cell mass was then suspended in Triton-X that had been added in a final concentration of 1% to a phosphate buffer, followed by disintegration with an ultrasonic disintegrator. The homogenate was centrifuged at 33,200 rpm at 4° C. for 1 hour. Thereafter, the supernatant was recovered, and a GST-GK fusion protein was then purified using a glutathione column (GSTrap FF, GE Healthcare Japan). The obtained GST-GK fusion protein was divided into some portions each having a small volume, and the thus divided proteins were then preserved at −80° C.
A GK assay was carried out at 25° C. at a final incubation volume of 100 μL using a flat-bottom 96-well assay plate. An assay buffer comprised 25 mmol/L Hepes buffer (pH 7.1), 25 mmol/L KCl, 2.5 mmol/L or 10 mmol/L D-glucose, 5 mmol/L ATP, 1 mmol/L nicotinamide adenine dinucleotide phosphate (abbreviated as NADP), 2 mmol/L MgCl2, 1 mmol/L dithiothreitol (DTT), 2 units/mL glucose-6 phosphate dehydrogenase (G6PDH), and 1 μg/mL GST-GK derived from human liver GK. ATP, G6PDH, and NADP were purchased from Roche Diagnostics. […] The thus mixed solution was preincubated in an incubator in which the temperature was controlled at 25° C. for 15 minutes. Subsequently, the reaction was initiated by adding 10 μL of the GST-GK solution to the reaction mixture, resulting in a final concentration of 0.1 μg/mL. After initiation of the reaction, an increase in the optical concentration at 340 nm (OD340) was monitored with a microplate spectrophotometer (Varsamax, Molecular Devices Japan K. K.) every 10 seconds over an incubation period of 10 minutes. An inclination of the OD340 increase was defined as raw data. The GK activating rate was indicated as a numerical value obtained from the expression: (Inclination of OD340 increase by addition of the test compound)/(inclination of OD340 increase without addition of the test compound). The results of the GK activating rate obtained at a test compound concentration of 1 μmol/L under the condition of a glucose concentration of 2.5 mmol/L are shown in the following table 2.

Series [2] has as its system normal mice (C57BL/6j mice). Description: Oral glucose tolerance test with normal mice after single administration of test compound. In kind it is in vivo. The note with it: 30 mg/kg oral, 2 g/kg glucose oral 30 minutes later, FIG. 1. How it is done:
The test compound (Example 5) (30 mg/kg) suspended in 10%(v/v) Gelucire44/14 (GATTEFOSSE) was orally administered to normal mice (C57BL/6j mice, CLEA Japan, Inc.). Thirty minutes later, 2 g/kg glucose was orally administered to the mice. The blood glucose level was measured using an automatic blood glucose level measurement apparatus (Medisafe, TERUMO), before administration of the test compound, 25 minutes after administration of the test compound, and 15, 30, 60, and 120 minutes after administration of glucose. Thus, the action of the test compound to lower blood glucose level was evaluated.

Series [3] can be described thus: Evaluation of organ selectivity (non-binding drug concentration in liver and pancreas after oral administration). The note with it: mice, 150 minutes after administration. In kind it is in vivo, normal mice (C57BL/6j mice).
Test in series [4]: as above
In kind it is in vivo, normal mice (C57BL/6j mice). To be noted: mice, 150 minutes after administration; for concentration at 150 min: C57BL/6j, mouse, dose 30 mg/kg. How it is done:
A test compound suspended in 10% (v/v) Gelucire 44/14 (GATTEFOSSE) was orally administered to normal mice (C57BL/6j mice, CLEA Japan, Inc.). The percentages of drugs that had not bound to proteins in the liver and the pancreas, which had been obtained by the in vitro test, were […] the total concentrations of the drugs in the liver and the pancreas obtained 150 minutes after administration of the drugs, so as to calculate the non-binding concentration of the drug in each case. The ratio of the non-binding concentration of the drug in the […] was calculated, and thus, liver selectivity was evaluated. As a comparative compound, PSN-GK1 described in non-patent document 11 (corresponding to Example 94 of patent document 2) was produced according to the method described in patent document 2, and the produced comparative compound was then evaluated in the same manner as described above (in the table, the comparative compound is indicated as PSN-GK1).

For series [5], the system named is normal mice (C57BL/6j mice). Description: Transition in blood glucose levels after single administration of test compound to normal mice. In kind it is in vivo. To be noted: 30 mg/kg oral, 1, 2, 4 and 6 hours after administration, FIG. 2. The protocol: A test compound (30 mg/kg, Example 5) suspended in 10% (v/v) Gelucire 44/14 (GATTEFOSSE) was orally administered to normal mice (C57BL/6j mice, CLEA Japan, Inc.). The blood glucose level was measured using an automatic blood glucose level measurement apparatus (Medisafe, TERUMO), before administration of the test compound, and 1, 2, 4, and 6 hours after administration of the test compound. Thus, the hypoglycemic action of the test compound was evaluated.

Series [6] deals with normal mice. To be noted: low dose; non-patent document 11; cited from earlier work.

On to `CCNC(=O)N1CC[C@H](C[C@@H](C(=O)Nc2ncc(F)s2)c2ccc(S(=O)(=O)C3CC3)cc2)C1` [Example 5, (S)-3-((R)-2-(4-(cyclopropylsulfonyl)phenyl)-3-((5-fluorothiazol-2-yl)amino)-3-oxopropyl)-N-ethylpyrrolidine-1-carboxamide], for which the activity at 1 µM in series [1] turned out to be 561%. The “blood glucose level in oral glucose tolerance test versus solvent alone” value in series [2] is listed as “lower than that of the mice orally administered with the solvent alone”. In addition, the selectivity ratio at 150 min in series [3] (C57BL/6j, mouse, liver and pancreas, dose 30 mg/kg) stood at 27. In addition, the concentration at 150 min came out at 47 ng/mL in series [4] (liver, read-out: Non-binding concentration (ng/mL) Liver) and 1.8 ng/mL in series [4] (pancreas, read-out: Non-binding concentration (ng/mL) Pancreas). In addition, in series [5], the “blood glucose level after single administration versus solvent alone” value is “almost equal to the blood glucose level of the mice orally administered with the solvent alone”.
Regarding `O=C(Nc1ncc(F)s1)[C@H](CC1CCOCC1)c1ccc(S(=O)(=O)C2CC2)cc1` [PSN-GK1, reference compound], the “Selectivity Liver/pancreas” value turned out to be 1.0 in series [3] (dose 1 mg/kg), 1.2 in series [3] (dose 10 mg/kg) and 0.8 in series [4] (dose 3 mg/kg). The “Non-binding concentration (ng/mL) Liver” value is given as 0.56 ng/mL in series [4] (dose 1 mg/kg), 1.4 ng/mL in series [4] (dose 3 mg/kg) and 7.4 ng/mL in series [4] (dose 10 mg/kg). Further, the “Non-binding concentration (ng/mL) Pancreas” value in series [4] (dose 1 mg/kg) is on record as 0.58 ng/mL; in series [4] (dose 3 mg/kg) it was 1.7 ng/mL; in series [4] (dose 10 mg/kg) it was 6.0 ng/mL. In addition, the “hypoglycemic action on normal mice” value in series [6] is reported as “has a hypoglycemic action on normal mice”.
